Source: patent US5112595A, “99MTC(III) myocardial imaging agents and method of use” (Mallinckrodt Medical, Inc., priority 1990, dated 1992)

Experiment: Biodistribution of Tc-99m (III) complexes in guinea pigs
Format: in vivo
Excerpt: Biodistribution Data of Selected Tc-99m (III) Complexes in Guinea Pigs

## trans-[1,2-bis[dihydro-2,2,5,5-tetramethyl-3(2H)furanone-4-methyleneamino]ethane]bis-[tris(3-methoxypropyl)phosphine]technetium-99 m(III) [Complex I]
5 min
  % Heart uptake: 0.8 %Injected dose/Organ
60 min
  % Heart uptake: 0.9 %Injected dose/Organ
Ratio at 5 min
  Heart/Blood: 4.6
  Heart/Liver: 1.5
Ratio at 60 min
  Heart/Blood: 35.6
  Heart/Liver: 6.6

## trans-[1,2-bis[dihydro-2,2,5,5-tetramethyl-3(2H)furanone-4-methyleneamino]ethane]bis-tris(2-(2-(1,3-dioxanyl))]ethylphosphine]technetium-99m(III) [Complex IV]
5 min
  % Heart uptake: 0.8 %Injected dose/Organ
60 min
  % Heart uptake: 0.9 %Injected dose/Organ
Ratio at 5 min
  Heart/Blood: 5.4
  Heart/Liver: 1.2
Ratio at 60 min
  Heart/Blood: 58.6
  Heart/Liver: 3.0

## trans-[1,2-bis[dihydro-2,2,5,5-tetramethyl-3(2H)furanthione-4-methyleneamino]ethane]-bis[tris(3-methoxypropyl)phosphine]technetium-99m (III) [Complex III]
5 min
  % Heart uptake: 1.1 %Injected dose/Organ
60 min
  % Heart uptake: 1.0 %Injected dose/Organ
Ratio at 5 min
  Heart/Blood: 5.9
  Heart/Liver: 0.9
Ratio at 60 min
  Heart/Blood: 3.5
  Heart/Liver: 1.5

## trans-[1-[dihydro-2,2,5,5-tetramethyl-3(2H)furanthione-4-methyleneamino]-2-[dihydro-2,2,5,5-tetramethyl-3(2H)furanone-4-methyleneaminoethane]bis[tris(3-methoxypropyl)phosphine]technetium99 m(III) [Complex II]
5 min
  % Heart uptake: 0.9 %Injected dose/Organ
60 min
  % Heart uptake: 0.8 %Injected dose/Organ
Ratio at 5 min
  Heart/Blood: 6.1
  Heart/Liver: 1.6
Ratio at 60 min
  Heart/Blood: 26.5
  Heart/Liver: 5.6
